ChEMBL document CHEMBL4033666, “Synthesis and mechanistic evaluation of novel N'-benzylidene-carbohydrazide-1H-pyrazolo[3,4-b]pyridine derivatives as non-anionic antiplatelet agents” (Eur J Med Chem, 2017)
The source made the active and inactive calls. Unless noted, the rule behind the calls is not given here.

Columns and labels:
[1] = tested on: Platelet; assay: Antiplatelet activity in human platelet rich plasma assessed as inhibition of arachidonic acid-induced platelet aggregation at 100 uM preincubated for 2 mins followed by arachidonic acid addition by turbidimetric method relative to control; type: functional
[2] = tested on: Platelet; assay: Antiplatelet activity in human platelet rich plasma assessed as inhibition of ADP-induced platelet aggregation at 100 uM preincubated for 2 mins followed by ADP addition by turbidimetric method relative to control; type: cell-based
[3] = tested on: Platelet; assay: Antiplatelet activity in human platelet rich plasma assessed as inhibition of collagen-induced platelet aggregation at 100 uM preincubated for 2 mins followed by collagen addition by turbidimetric method relative to control; type: cell-based
[4] = tested on: Platelet; assay: Antiplatelet activity in human platelet rich plasma assessed as inhibition of epinephrine-induced platelet aggregation at 100 uM preincubated for 2 mins followed by epinephrine addition by turbidimetric method relative to control; type: cell-based
[5] = tested on: Platelet; assay: Antiplatelet activity in human platelet rich plasma assessed as inhibition of arachidonic acid-induced platelet aggregation preincubated for 2 mins followed by arachidonic acid addition by turbidimetric method relative to control; type: functional, cell-based
[6] = tested on: Platelet; assay: Antiplatelet activity in human platelet rich plasma assessed as inhibition of ADP-induced platelet aggregation preincubated for 2 mins followed by ADP addition by turbidimetric method; type: cell-based
[7] = tested on: Platelet; assay: Antiplatelet activity in human platelet rich plasma assessed as inhibition of collagen-induced platelet aggregation preincubated for 2 mins followed by collagen addition by turbidimetric method; type: cell-based
[8] = tested on: Platelet; assay: Antiplatelet activity in human platelet rich plasma assessed as inhibition of epinephrine-induced platelet aggregation preincubated for 2 mins followed by epinephrine addition by turbidimetric method; type: cell-based
[9] = molecular target: T1, Prostaglandin G/H synthase 1 (Ovis aries, UniProt P05979); assay: Inhibition of ovine COX-1 assessed as reduction in PGH2 production up to 100 uM using arachidonic acid as substrate preincubated for 5 mins followed by substrate and hematin addition measured after 2 mins by ELISA relative to control; details: sheep
T1 sequence (P05979 whole entry): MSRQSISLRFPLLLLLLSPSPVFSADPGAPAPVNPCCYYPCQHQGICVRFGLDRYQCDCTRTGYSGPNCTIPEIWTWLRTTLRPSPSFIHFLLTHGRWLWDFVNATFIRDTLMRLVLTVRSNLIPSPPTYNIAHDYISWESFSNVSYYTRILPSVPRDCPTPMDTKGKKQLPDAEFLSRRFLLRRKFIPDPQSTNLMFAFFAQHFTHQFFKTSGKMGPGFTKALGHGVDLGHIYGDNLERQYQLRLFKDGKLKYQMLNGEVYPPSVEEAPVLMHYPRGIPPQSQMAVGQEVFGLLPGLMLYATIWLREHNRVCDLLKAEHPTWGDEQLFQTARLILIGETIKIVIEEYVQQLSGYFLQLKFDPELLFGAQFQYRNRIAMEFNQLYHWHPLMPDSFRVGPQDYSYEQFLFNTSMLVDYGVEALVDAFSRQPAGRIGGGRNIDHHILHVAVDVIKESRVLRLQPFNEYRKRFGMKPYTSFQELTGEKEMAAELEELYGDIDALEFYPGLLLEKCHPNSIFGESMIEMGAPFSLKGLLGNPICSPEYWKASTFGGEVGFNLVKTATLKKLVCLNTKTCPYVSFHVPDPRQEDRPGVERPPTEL

[10] = molecular target: T2, Prostaglandin G/H synthase 2 (Homo sapiens, UniProt P35354); assay: Inhibition of recombinant human COX-2 assessed as reduction in PGH2 production up to 100 uM using arachidonic acid as substrate preincubated for 5 mins followed by substrate and hematin addition measured after 2 mins by ELISA relative to control
T2 sequence (P35354 whole entry): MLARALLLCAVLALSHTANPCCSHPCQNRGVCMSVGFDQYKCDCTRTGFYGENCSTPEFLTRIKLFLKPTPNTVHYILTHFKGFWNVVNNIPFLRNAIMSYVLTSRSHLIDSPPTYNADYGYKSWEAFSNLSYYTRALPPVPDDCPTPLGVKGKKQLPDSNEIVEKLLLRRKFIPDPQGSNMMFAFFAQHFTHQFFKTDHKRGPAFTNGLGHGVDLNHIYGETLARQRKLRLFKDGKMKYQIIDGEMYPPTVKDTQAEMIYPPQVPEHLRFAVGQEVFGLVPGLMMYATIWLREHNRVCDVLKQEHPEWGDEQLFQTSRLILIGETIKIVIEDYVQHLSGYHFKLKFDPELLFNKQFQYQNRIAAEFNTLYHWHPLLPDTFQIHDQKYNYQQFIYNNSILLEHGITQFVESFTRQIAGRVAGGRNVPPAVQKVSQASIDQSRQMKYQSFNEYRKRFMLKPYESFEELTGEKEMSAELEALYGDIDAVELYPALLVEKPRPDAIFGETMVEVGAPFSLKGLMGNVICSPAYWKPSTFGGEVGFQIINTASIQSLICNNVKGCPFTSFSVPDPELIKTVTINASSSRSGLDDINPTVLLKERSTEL

[11] = molecular target: T3, Thromboxane-A synthase (Homo sapiens) (UniProt P24557); assay: Inhibition of TXS in human platelet rich plasma assessed as decrease in TXB2 production at 100 uM using arachidonic acid after 5 mins by ELISA
T3 sequence (whole entry): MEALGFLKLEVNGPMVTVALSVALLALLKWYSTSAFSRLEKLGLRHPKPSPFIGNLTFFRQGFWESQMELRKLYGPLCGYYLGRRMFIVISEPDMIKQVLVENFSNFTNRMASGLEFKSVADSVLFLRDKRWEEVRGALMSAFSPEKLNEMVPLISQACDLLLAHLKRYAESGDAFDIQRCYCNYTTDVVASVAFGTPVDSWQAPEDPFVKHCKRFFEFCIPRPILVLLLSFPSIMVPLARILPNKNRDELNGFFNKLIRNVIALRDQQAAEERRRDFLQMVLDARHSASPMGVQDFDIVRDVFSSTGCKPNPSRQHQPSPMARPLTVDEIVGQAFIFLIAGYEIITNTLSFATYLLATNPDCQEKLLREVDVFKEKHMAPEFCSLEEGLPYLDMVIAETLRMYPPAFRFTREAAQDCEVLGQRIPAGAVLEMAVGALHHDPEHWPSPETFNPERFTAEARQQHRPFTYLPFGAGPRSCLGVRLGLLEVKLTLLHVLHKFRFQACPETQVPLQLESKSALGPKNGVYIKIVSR

[12] = tested on: Platelet; assay: Potency index, ratio of aspirin IC50 to test compound IC50 for inhibition of arachidonic acid-induced platelet aggregation in human platelet rich plasma; type: functional
[13] = Binding affinity to DOPC/DOPS large unilamellar vesicles assessed as blue shift at 100 uM by DAPI staining based fluorescence assay
[14] = tested on: Platelet; assay: Drug uptake in human platelet assessed as co-localization with CD31 at 100 uM by epifluorescence assay; type: ADME, cell-based
[15] = tested on: Platelet; assay: Drug uptake in human platelet assessed as co-localization with CD31 at 100 uM by confocal microscopy analysis; type: ADME, cell-based
[16] = molecular target: Cytochrome P450 3A4 (Homo sapiens, UniProt P08684); assay: Inhibition of recombinant human CYP3A4 expressed in baculosomes using BOMR as substrate preincubated for 10 mins followed by substrate/NADP+ addition measured for 1 hr; type: ADME; details: for inhibition (INH): human, recombinant enzyme, 1 h
[17] = tested on: Platelet; assay: Antiplatelet activity in human platelet rich plasma assessed as inhibition of […]-induced platelet aggregation at 100 uM preincubated for 2 mins followed by […] addition by turbidimetric method; type: functional, cell-based
[18] = tested on: Blood; assay: Reduction of clot retraction in human whole blood after 2 hrs; type: ADME, tissue-based
[19] = tested on: Plasma; assay: Change in prothrombin time in human plasma at 100 uM incubated for 15 mins at room temperature and 2 mins at 37 degC in presence of calcium thromboplastin; type: ADME, cell-free
[20] = tested on: Plasma; assay: Change in activated partial thromboplastin time in human plasma at 100 uM incubated for 15 mins at room temperature and 2 mins at 37 degC in presence of CaCl2; type: ADME, cell-free
[21] = molecular target: Prostaglandin G/H synthase 1 (Homo sapiens, UniProt P23219); assay: Inhibition of COX1 in human platelet rich plasma assessed as decrease in PGE2 production at 100 uM using arachidonic acid as substrate after 5 mins by ELISA
[22] = tested on: Platelet; assay: Potency index, ratio of ozagrel IC50 to test compound IC50 for inhibition of arachidonic acid-induced platelet aggregation in human platelet rich plasma; type: functional
[23] = Hemolytic activity against human erythrocytes after 3 hrs relative to control; type: ADME, cell-based, Erythrocyte; details: read-out: Activity
[24] = Selectivity ratio of IC50 for recombinant human CYP3A4 to IC50 for arachidonic acid-induced platelet aggregation in human platelet rich plasma
[25] = molecular target: T1, Prostaglandin G/H synthase 1; assay: Inhibition of ovine COX-1 assessed as reduction in PGH2 production using arachidonic acid as substrate preincubated for 5 mins followed by substrate and hematin addition measured after 2 mins by ELISA relative to control; details: sheep
[26] = molecular target: T1, Prostaglandin G/H synthase 1; assay: Inhibition of ovine COX-1 assessed as reduction in PGH2 production at 100 uM using arachidonic acid as substrate preincubated for 5 mins followed by substrate and hematin addition measured after 2 mins by ELISA relative to control; details: sheep
[27] = molecular target: T2, Prostaglandin G/H synthase 2; assay: Inhibition of recombinant human COX-2 assessed as reduction in PGH2 production at 100 uM using arachidonic acid as substrate preincubated for 5 mins followed by substrate and hematin addition measured after 2 mins by ELISA relative to control

Prostaglandin G/H synthase 1 (Homo sapiens, UniProt P23219), sequence (P23219 whole entry): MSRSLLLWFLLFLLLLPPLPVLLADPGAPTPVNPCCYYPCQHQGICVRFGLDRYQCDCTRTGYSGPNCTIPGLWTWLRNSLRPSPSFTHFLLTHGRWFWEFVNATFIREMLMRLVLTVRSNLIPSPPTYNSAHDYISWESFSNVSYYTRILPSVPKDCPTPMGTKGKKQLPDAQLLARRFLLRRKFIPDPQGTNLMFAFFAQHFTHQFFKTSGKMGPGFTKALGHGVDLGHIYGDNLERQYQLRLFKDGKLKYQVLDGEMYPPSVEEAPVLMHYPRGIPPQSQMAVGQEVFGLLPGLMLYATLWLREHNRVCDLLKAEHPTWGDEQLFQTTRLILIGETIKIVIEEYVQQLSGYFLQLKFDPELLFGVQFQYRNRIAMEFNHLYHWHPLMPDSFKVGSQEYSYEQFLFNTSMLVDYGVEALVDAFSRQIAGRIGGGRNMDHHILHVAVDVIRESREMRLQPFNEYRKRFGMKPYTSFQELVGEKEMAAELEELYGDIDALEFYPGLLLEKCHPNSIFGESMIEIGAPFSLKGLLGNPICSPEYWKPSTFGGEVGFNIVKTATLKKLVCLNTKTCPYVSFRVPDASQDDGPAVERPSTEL
Cytochrome P450 3A4, sequence (P08684 whole entry): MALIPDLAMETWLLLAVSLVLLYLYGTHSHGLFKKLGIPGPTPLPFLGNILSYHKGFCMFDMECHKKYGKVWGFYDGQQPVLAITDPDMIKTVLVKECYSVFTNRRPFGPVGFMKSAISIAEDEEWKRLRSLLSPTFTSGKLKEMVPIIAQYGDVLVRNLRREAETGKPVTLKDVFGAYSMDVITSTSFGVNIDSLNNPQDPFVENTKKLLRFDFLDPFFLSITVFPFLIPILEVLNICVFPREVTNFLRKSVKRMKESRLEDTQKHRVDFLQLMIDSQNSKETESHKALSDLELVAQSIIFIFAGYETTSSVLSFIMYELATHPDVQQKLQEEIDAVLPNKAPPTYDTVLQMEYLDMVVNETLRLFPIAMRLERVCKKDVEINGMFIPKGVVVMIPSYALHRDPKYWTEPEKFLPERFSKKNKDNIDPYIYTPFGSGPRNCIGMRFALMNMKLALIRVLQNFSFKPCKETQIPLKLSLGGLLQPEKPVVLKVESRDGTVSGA

Row | IC50 [5] [µM] | IC50 [6] [µM] | IC50 [7] [µM] | IC50 [8] [µM] | inhibition (INH) [9] | inhibition (INH) [10] | inhibition [11] | Activity [13] | Drug uptake [14] | Drug uptake [15] | inhibition (INH) [21] | SMILES | inhibition at 100 µM [1] [%] | inhibition at 100 µM [2] [%] | inhibition at 100 µM [3] [%] | inhibition at 100 µM [4] [%] | Ratio IC50 [12] | inhibition [17] | Activity [18] | Activity [19] | Activity [20] | further results
1 | 3.67 to 10.2 | > 100 | > 100 | > 100 | Not Active | Not Active | Active | Active | Active | Active | Not Active | Cc1cc(C(=O)N/N=C/c2ccc(F)cc2)c2c(C)nn(-c3ccccc3)c2n1 | 95.4 | 13.8 | 9.19 | 3.88 | <=10 | inactive | Non-Toxic | Non-Toxic | Non-Toxic | hemolysis at 3 h [23]: 5%; inhibition (INH) [16]: Dose-dependent effect; Ratio IC50 [22]: <=10
2 | 3.67 to 10.2 | > 100 | > 100 | > 100 | Not Active | Not Active | Active | Active | Active | Active | Not Active | Cc1cc(C(=O)N/N=C/c2ccc(Br)cc2)c2c(C)nn(-c3ccccc3)c2n1 | 94.8 | 9.4 | 17 | 11.8 | <=10 | inactive | Non-Toxic | Non-Toxic | Non-Toxic | hemolysis at 3 h [23]: 5%; IC50 [16]: 138 µM; Ratio IC50 [24]: 20 to 30; Ratio IC50 [22]: <=10
3 | 3.67 to 10.2 | > 100 | > 100 | > 100 | Not Active | Not Active | Active | Active | Active | Active | Not Active | Cc1cc(C(=O)N/N=C/c2ccc(O)cc2)c2c(C)nn(-c3ccccc3)c2n1 | 96.8 | 3.22 | 64.6 | 3.3 | <=10 | inactive | Non-Toxic | Non-Toxic | Non-Toxic | hemolysis at 3 h [23]: 0%; inhibition (INH) [16]: Dose-dependent effect; inhibition (INH) [26]: Active; inhibition (INH) [27]: Active; Ratio IC50 [22]: <=10

Further lines, the compound ahead of its results:

Row | SMILES | IC50 [5] [µM] | IC50 [6] [µM] | IC50 [7] [µM] | IC50 [8] [µM] | inhibition (INH) [9] | inhibition (INH) [10] | inhibition [11] | Activity [13] | Drug uptake [14] | Drug uptake [15] | inhibition (INH) [21] | inhibition at 100 µM [1] [%] | inhibition at 100 µM [2] [%] | inhibition at 100 µM [3] [%] | inhibition at 100 µM [4] [%] | Ratio IC50 [12] | inhibition [17] | Activity [18] | Activity [19] | Activity [20] | further results
4 | Cc1ccc(/C=N/NC(=O)c2cc(C)nc3c2c(C)nn3-c2ccccc2)cc1 | 3.67 to 10.2 | > 100 | > 100 | > 100 | Not Active | Not Active | Active | Active | Active | Active | Not Active | 89.2 | 6.2 | 5.58 | 0 | <=10 | inactive | Non-Toxic | Non-Toxic | Non-Toxic | inhibition (INH) [16]: Dose-dependent effect; Ratio IC50 [22]: <=10
5 | Cc1cc(C(=O)N/N=C/c2ccc(Cl)cc2)c2c(C)nn(-c3ccccc3)c2n1 | 3.67 to 10.2 | > 100 | > 100 | > 100 | Not Active | Not Active | Active | Active | Active | Active | Active | 83.8 | 3.4 | 35.3 | 1.1 | <=10 | inactive | Non-Toxic | Non-Toxic | Non-Toxic | hemolysis at 3 h [23]: 10%; IC50 [16]: 94.6 µM; Ratio IC50 [24]: 20 to 30; Ratio IC50 [22]: <=10
6 | COc1ccc2c(c1)c(CC(=O)O)c(C)n2C(=O)c1ccc(Cl)cc1 [INDOMETHACIN] |  |  |  |  |  |  |  |  |  |  |  |  |  |  |  |  |  |  |  |  | inhibition (INH) [25]: < 20%
